Assay results from patent US9018256B2, “Feed additive for animals of P-thymol, salt derivative or ester derivative thereof” (priority 2011, dated 2015).
Like-named read-outs stand apart in the source and are kept apart here.

Tests used:
Wistar rats = experiment: Rat oral LD50 measurement (improved Karber's method); type: in vivo
staphylococcus aureus = experiment: In-vitro antibacterial activity, tube double dilution method; type: cell-based
clostridium perfringens = type: cell-based
escherichia coli = experiment: In-vitro antibacterial activity, tube double dilution method; type: cell-based
salmonella gallinarum = type: cell-based
salmonella bacillus = type: cell-based
salmonella choleraesuis = experiment: In-vitro antibacterial activity, tube double dilution method; type: cell-based
[1] = tested on: Lingnan yellow big chicken; experiment: Comparison of chicken growth promoting effects of p-thymol, thymol and carvacrol; type: in vivo; conditions: 100 ppm in feed, 1 to 21-day-old chickens; for Total Feed Consumption / Total Weight Gain: 50 per group
[2] = tested on: three-way cross weaned pigs; experiment: Growth promoting effect test on weaned pigs; type: in vivo, pig; conditions: 100 ppm in feed, 30 days; for Total Feed Consumption / Total Weight Gain: 30 per group
Chemy Valley ducks = experiment: Growth promoting effect test on ducks; type: in vivo, duck; conditions: 100 ppm in feed, 1 to 46-day-old ducks; for Total Feed Consumption / Total Weight Gain: 100 per group
black carps = experiment: Application in aquatic feed (black carp growth test); type: in vivo; conditions: for average weight gain improved compared with the control group / feed conversion rate (FCR) / feed conversion rate reduced compared with the control group / final weight / weight gain: 100 ppm in feed, black carps, 8 weeks
rats = conditions: rat, in vivo; cited from earlier work
[3] = Volatility comparison under reduced-pressure drying; conditions: for weight remained after reduced-pressure drying: initial weight 10.0 g
[4] = Changes in chicken complete formula feed during preservation (gas chromatography); conditions: 25-30° C., initial 100 ppm
[5] = rat, oral, preliminary experiment
[6] = clostridium perfringens CAU0591
[7] = clostridium perfringens CAU0795
[8] = clostridium perfringens CAU0855
[9] = clostridium perfringens CAU0859
[10] = clostridium perfringens HNAU160
[11] = clostridium perfringens HNAU166
[12] = salmonella choleraesuis CEC19940141
[13] = salmonella choleraesuis CEC19940146

In the case of `Cc1ccc(C(C)C)cc1O` [carvacrol, 2-methyl-5-isopropyl-phenol], the “Toxicity Judgment” value (Wistar rats; rat oral LD50 grading) is reported as “relative”, the LD50 (Wistar rats; rat, oral, observed 7 days) is reported as 6400 mg/kg weight and the “Dm (dose causing 100% death)” value (Wistar rats; [5]) is reported as 1800 mg/kg weight. The “Dn (dose causing 0% death)” value (Wistar rats; [5]) was 400 mg/kg weight, the “Inhibiting Activity (minimum bacteria inhibiting concentration)” value (from here on “Inhibiting Activity”) (staphylococcus aureus; s. aureus CAU0804) was 500 µg/mL and the “Inhibiting Activity” value (staphylococcus aureus; s. aureus CAU0810) was 250 µg/mL. For the same molecule, the “Inhibiting Activity” value (staphylococcus aureus; s. aureus CAU0837) was 250 µg/mL, the “Inhibiting Activity” value (staphylococcus aureus; s. aureus CAU0866) was 250 µg/mL and the “Inhibiting Activity” value (staphylococcus aureus; s. aureus CAU0868) was 250 µg/mL. The “Inhibiting Activity” value (staphylococcus aureus; s. aureus CAU0869) was 250 µg/mL, the “Inhibiting Activity” value (staphylococcus aureus; s. aureus CAU0871) was 250 µg/mL and the “Inhibiting Activity” value (clostridium perfringens; [6]) was 500 µg/mL. For the same molecule, the “Inhibiting Activity” value (clostridium perfringens; [7]) was 250 µg/mL, the “Inhibiting Activity” value (clostridium perfringens; [8]) was 500 µg/mL and the “Inhibiting Activity” value (clostridium perfringens; [9]) was 500 µg/mL. For the same molecule, the “Inhibiting Activity” value (clostridium perfringens; [10]) was 500 µg/mL, the “Inhibiting Activity” value (clostridium perfringens; [11]) was 250 µg/mL and the “Inhibiting Activity” value (escherichia coli; escherichia coli CAU0020) was 250 µg/mL. The “Inhibiting Activity” value (escherichia coli; escherichia coli CAU0053) was 500 µg/mL, the “Inhibiting Activity” value (escherichia coli; escherichia coli CAU0147) was 250 µg/mL and the “Inhibiting Activity” value (escherichia coli; escherichia coli CAU0159) was 250 µg/mL. For the same molecule, the “Inhibiting Activity” value (escherichia coli; escherichia coli CAU0195) was 500 µg/mL, the “Inhibiting Activity” value (salmonella gallinarum; salmonella gallinarum CAU0205) was 250 µg/mL and the “Inhibiting Activity” value (salmonella gallinarum; salmonella gallinarum CAU0206) was 500 µg/mL. The “Inhibiting Activity” value (salmonella gallinarum; salmonella gallinarum QAU0399) was 500 µg/mL, the “Inhibiting Activity” value (salmonella bacillus) was 250 µg/mL and the “Inhibiting Activity” value (salmonella choleraesuis; [12]) was 500 µg/mL. The “Inhibiting Activity” value (salmonella choleraesuis; [13]) was 250 µg/mL, the “Average Weight Gain” value [1] was 332.9 g and the “Feed Conversion Rate” value [1] was 1.761. The “Survival Rate” value [1] was 100%, the “feed conversion rate reduced compared with the control group” value (shortened to “feed conversion rate reduced”) [1] was 0.021 and the “relative weight gain rate improved compared with the control group” value (“relative weight gain rate improved” for short) [1] was 3.19%. The “Total Feed Consumption” value [1] was 29.32 kg, the “Total Weight Gain” value [1] was 16.65 kg and the “Relative Weight Gain Rate” value ([1]; control = 100) was 103.19%. For the same molecule, the “Feed Conversion Rate” value [2] was 2.336, the “Survival Rate” value [2] was 100% and the “feed conversion rate reduced” value [2] was 0.085. The “relative weight gain rate improved” value [2] was 4.69%, the “Total Feed Consumption” value [2] was 798.1 kg and the “Total Weight Gain” value [2] was 341.7 kg. The “Relative Weight Gain Rate” value ([2]; control = 100) was 104.69%, the “Feed Conversion Rate” value (Chemy Valley ducks) was 2.739 and the “Survival Rate” value (Chemy Valley ducks) was 100%. The “feed conversion rate reduced” value (Chemy Valley ducks) was 0.049, the “relative weight gain rate improved” value (Chemy Valley ducks) was 2.51% and the “Total Feed Consumption” value (Chemy Valley ducks) was 928.3 kg. The “Total Weight Gain” value (Chemy Valley ducks) was 338.9 kg, the “Relative Weight Gain Rate” value (Chemy Valley ducks; control = 100) was 102.51% and the “average weight gain improved compared with the control group” value (black carps) was 3.52%. For the same molecule, the “feed conversion rate (FCR)” value (black carps) was 1.45 ± 0.06, the “feed conversion rate reduced” value (black carps) was 2.68% and the final weight (black carps) was 598.08 ± 27.11 g. For the same molecule, the weight gain (black carps) was 138.0 ± 7.78%, the “survival rate (SR)” value (black carps; in vivo) was 100% and the “oral median lethal dose (LD50) of rats” value (rats) was 810 mg/kg weight. For the same molecule, the “weight remained after reduced-pressure drying” value ([3]; 50° C., 1 hour) was 4.84 g, the “weight remained after reduced-pressure drying” value ([3]; 70° C., 1 hour) was 0 g and the “weight remained after reduced-pressure drying” value ([3]; 90° C., 1 hour) was 0 g. For the same molecule, the “volatilization (in words)” value ([3]; reduced-pressure drying within 1 hour at 70° C. and over) was “completely volatilized”, the “concentration measured after extraction from the complete formula feed” value (shortened to “concentration measured after extraction”) ([4]; 1 day) was 99.6 ppm and the “concentration measured after extraction” value ([4]; 15 days) was 87.7 ppm. The “concentration measured after extraction” value ([4]; 30 days) was 73.1 ppm, the “concentration measured after extraction” value ([4]; 45 days) was 58.5 ppm and the “concentration measured after extraction” value ([4]; 60 days) was 42.6 ppm.

With `Cc1ccc(C(C)C)c(O)c1` [thymol, 5-methyl-2-isopropyl-phenol] the “Inhibiting Activity” value (staphylococcus aureus; s. aureus CAU0804) was 500 µg/mL, the “Inhibiting Activity” value (staphylococcus aureus; s. aureus CAU0810) was 125 µg/mL and the “Inhibiting Activity” value (staphylococcus aureus; s. aureus CAU0837) was 250 µg/mL. For the same molecule, the “Inhibiting Activity” value (staphylococcus aureus; s. aureus CAU0866) was 250 µg/mL, the “Inhibiting Activity” value (staphylococcus aureus; s. aureus CAU0868) was 250 µg/mL and the “Inhibiting Activity” value (staphylococcus aureus; s. aureus CAU0869) was 125 µg/mL. The “Inhibiting Activity” value (staphylococcus aureus; s. aureus CAU0871) was 250 µg/mL, the “Inhibiting Activity” value (clostridium perfringens; [6]) was 250 µg/mL and the “Inhibiting Activity” value (clostridium perfringens; [7]) was 250 µg/mL. For the same molecule, the “Inhibiting Activity” value (clostridium perfringens; [8]) was 250 µg/mL, the “Inhibiting Activity” value (clostridium perfringens; [9]) was 250 µg/mL and the “Inhibiting Activity” value (clostridium perfringens; [10]) was 500 µg/mL. The “Inhibiting Activity” value (clostridium perfringens; [11]) was 250 µg/mL, the “Inhibiting Activity” value (escherichia coli; escherichia coli CAU0020) was 250 µg/mL and the “Inhibiting Activity” value (escherichia coli; escherichia coli CAU0053) was 250 µg/mL. The “Inhibiting Activity” value (escherichia coli; escherichia coli CAU0147) was 250 µg/mL, the “Inhibiting Activity” value (escherichia coli; escherichia coli CAU0159) was 250 µg/mL and the “Inhibiting Activity” value (escherichia coli; escherichia coli CAU0195) was 250 µg/mL. The “Inhibiting Activity” value (salmonella gallinarum; salmonella gallinarum CAU0205) was 500 µg/mL, the “Inhibiting Activity” value (salmonella gallinarum; salmonella gallinarum CAU0206) was 250 µg/mL and the “Inhibiting Activity” value (salmonella gallinarum; salmonella gallinarum QAU0399) was 500 µg/mL. The “Inhibiting Activity” value (salmonella bacillus) was 250 µg/mL, the “Inhibiting Activity” value (salmonella choleraesuis; [12]) was 250 µg/mL and the “Inhibiting Activity” value (salmonella choleraesuis; [13]) was 250 µg/mL. The “Average Weight Gain” value [1] was 334.8 g, the “Feed Conversion Rate” value [1] was 1.756 and the “Survival Rate” value [1] was 100%. The “feed conversion rate reduced” value [1] was 0.026, the “Total Feed Consumption” value [1] was 29.40 kg and the “Total Weight Gain” value [1] was 16.74 kg. For the same molecule, the “Feed Conversion Rate” value [2] was 2.324, the “Survival Rate” value [2] was 100% and the “feed conversion rate reduced” value [2] was 0.097. The “Total Feed Consumption” value [2] was 796.3 kg, the “Total Weight Gain” value [2] was 342.6 kg and the “Feed Conversion Rate” value (Chemy Valley ducks) was 2.726. For the same molecule, the “Survival Rate” value (Chemy Valley ducks) was 100%, the “feed conversion rate reduced” value (Chemy Valley ducks) was 0.062 and the “Total Feed Consumption” value (Chemy Valley ducks) was 940.7 kg. The “Total Weight Gain” value (Chemy Valley ducks) was 345.1 kg, the “average weight gain improved compared with the control group” value (black carps) was 4.53% and the “feed conversion rate (FCR)” value (black carps) was 1.44 ± 0.08. The “feed conversion rate reduced” value (black carps) was 3.36%, the final weight (black carps) was 601.58 ± 28.02 g and the weight gain (black carps) was 139.29 ± 7.37%. The “weight remained after reduced-pressure drying” value ([3]; 50° C., 1 hour) was 6.12 g, the “weight remained after reduced-pressure drying” value ([3]; 70° C., 1 hour) was 1.02 g and the “weight remained after reduced-pressure drying” value ([3]; 90° C., 1 hour) was 0 g. For the same molecule, the volatilized part ([3]; reduced-pressure drying 70° C., 1 hour) was 89.8%, the “concentration measured after extraction” value ([4]; 1 day) was 100.4 ppm and the “concentration measured after extraction” value ([4]; 15 days) was 90.2 ppm. The “concentration measured after extraction” value ([4]; 30 days) was 78.9 ppm, the “concentration measured after extraction” value ([4]; 45 days) was 63.7 ppm and the “concentration measured after extraction” value ([4]; 60 days) was 49.7 ppm.
